Usually IC50 stands for the concentration needed to halve the response being measured. A higher IC50 goes with weaker potency.

The target in this experiment is T1, human ENT1 (Homo sapiens, UniProt Q99808).
T1 sequence (Q99808 1-456): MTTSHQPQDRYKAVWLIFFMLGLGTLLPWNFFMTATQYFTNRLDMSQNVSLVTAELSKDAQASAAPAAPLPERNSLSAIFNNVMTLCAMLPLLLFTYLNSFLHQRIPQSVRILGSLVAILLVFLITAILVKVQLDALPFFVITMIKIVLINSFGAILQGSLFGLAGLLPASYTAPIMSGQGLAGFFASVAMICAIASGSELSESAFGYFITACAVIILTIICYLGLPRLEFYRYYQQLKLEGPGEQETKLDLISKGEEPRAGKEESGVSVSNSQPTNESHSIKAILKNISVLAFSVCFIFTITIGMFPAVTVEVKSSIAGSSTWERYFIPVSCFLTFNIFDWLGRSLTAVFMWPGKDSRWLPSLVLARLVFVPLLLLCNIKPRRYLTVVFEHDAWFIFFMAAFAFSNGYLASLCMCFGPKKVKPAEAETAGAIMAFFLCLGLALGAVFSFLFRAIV
In words: ENT1 binding assay (competition with Sahenta-DY647 on JAR cells). The note with it: binned IC50. On the set-up: JAR cells expressing ENT1 were bought from ATCC; host or cells: JAR cells. The gist of the method: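 JAR cells were incubated with test compounds and the fluorescent ligand Sahenta-DY647 in competition. Plates were washed twice by centrifugation (4 min, 400 rcf, 4 °C). Binding potency was derived from the final fluorescence.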
On to `COCCN(CCOC)c1nc(N2CCC(OC)CC2)c2nc(N(CCOC)CCOC)nc(NCCOc3ccccc3)c2n1` [Compound 56, N2,N2,N6,N6-tetrakis(2-methoxyethyl)-8-(4-methoxypiperidin-1-yl)-N4-(2-phenoxyethyl)pyrimido[5,4-d]pyrimidine-2,4,6-triamine], for which the concentration for half-maximal inhibition (IC50) lay in the range of 100 to 500 nM.
The value for `COCCN(CCOC)c1nc(N2CCC(OC)CC2)c2nc(N(CCO)CCO)nc(N3CC(=O)N4CCCC4C3)c2n1` (stereo not shown) [Compound 313, 2-(2-(bis(2-hydroxyethyl)amino)-6-(bis(2-methoxyethyl)amino)-8-(4-methoxypiperidin-1-yl)pyrimido[5,4-d]pyrimidin-4-yl)hexahydropyrrolo[1,2-a]pyrazin-4(1H)-one] was 100 to 500 nM; that for `COCCN(CCOC)c1nc(N2CCN(c3nc(C)no3)CC2)c2nc(N(CCOC)CCOC)nc(N3CCN(c4nc(C)no4)CC3)c2n1` [Compound 129, N2,N2,N6,N6-tetrakis(2-methoxyethyl)-4,8-bis(4-(3-methyl-1,2,4-oxadiazol-5-yl)piperazin-1-yl)pyrimido[5,4-d]pyrimidine-2,6-diamine] was 100 to 500 nM.
`COCCN(CCOC)c1nc(N2CCN(C)C(=O)C2)c2nc(N(CCOC)CCOC)nc(N(C)Cc3ccc(F)c(C#N)c3)c2n1` [Compound 238, 5-(((2,6-bis(bis(2-methoxyethyl)amino)-8-(4-methyl-3-oxopiperazin-1-yl)pyrimido[5,4-d]pyrimidin-4-yl)(methyl)amino)methyl)-2-fluorobenzonitrile] showed an IC50 of less than 100 nM.
The value for `COCCN(CCOC)c1nc(N2CCC(OC)CC2)c2nc(N(CCOC)CCOC)nc(N(C)Cc3ccc(OC)c(OC)c3)c2n1` [Compound 169, N4-(3,4-dimethoxybenzyl)-N2,N2,N6,N6-tetrakis(2-methoxyethyl)-8-(4-methoxypiperidin-1-yl)-N4-methylpyrimido[5,4-d]pyrimidine-2,4,6-triamine] was less than 100 nM; that for `CCN(CC)c1nc(N(CCOC)CCOC)nc2c(N3CCC(OC)CC3)nc(N(CCOC)CCOC)nc12` [Compound 85, N4,N4-diethyl-N2,N2,N6,N6-tetrakis(2-methoxyethyl)-8-(4-methoxypiperidin-1-yl)pyrimido[5,4-d]pyrimidine-2,4,6-triamine] was less than 100 nM; that for `COCCN(Cc1ccc(OC)c(OC)c1OC)c1nc(N2CCC(OC)CC2)c2nc(N(CCO)CCO)nc(N3CCN(C)C(=O)C3)c2n1` [Compound 304, 4-(2-(bis(2-hydroxyethyl)amino)-6-((2-methoxyethyl)(2,3,4-trimethoxybenzyl)amino)-8-(4-methoxypiperidin-1-yl)pyrimido[5,4-d]pyrimidin-4-yl)-1-methylpiperazin-2-one] was less than 100 nM.
Molecule `COCCN(CCOC)c1nc(N2CCC(OC)CC2)c2nc(N(CCOC)CCOC)nc(NC3CCCC3)c2n1` [Compound 167, N4-cyclopentyl-N2,N2,N6,N6-tetrakis(2-methoxyethyl)-8-(4-methoxypiperidin-1-yl)pyrimido[5,4-d]pyrimidine-2,4,6-triamine] yielded a half-inhibitory concentration (IC50) of 100 to 500 nM.
For `COCCN(CCOC)c1nc(N2CCC(OC)CC2)c2nc(N(CCOC)CCOCCN3CCOCC3)nc(N3CCC(OC)CC3)c2n1` [Compound 45, N2,N2,N6-tris(2-methoxyethyl)-4,8-bis(4-methoxypiperidin-1-yl)-N6-(2-(2-morpholinoethoxy)ethyl)pyrimido[5,4-d]pyrimidine-2,6-diamine] the value was 100 to 500 nM; for `COCCN(CCOC)c1nc(N2CCC(OC)CC2)c2nc(N3CCN(S(C)(=O)=O)CC3)nc(N3CCC(OC)CC3)c2n1` [Compound 30, N,N-bis(2-methoxyethyl)-4,8-bis(4-methoxypiperidin-1-yl)-6-(4-(methylsulfonyl)piperazin-1-yl)pyrimido[5,4-d]pyrimidin-2-amine], 500 to 1000 nM; for `COCCN(CCOC)c1nc(N2CCN(C)C(=O)C2)c2nc(N3CCc4[nH]cnc4C3)nc(N3CCC(OC)CC3)c2n1` [Compound 291, 4-(2-(bis(2-methoxyethyl)amino)-8-(4-methoxypiperidin-1-yl)-6-(1,4,6,7-tetrahydro-5H-imidazo[4,5-c]pyridin-5-yl)pyrimido[5,4-d]pyrimidin-4-yl)-1-methylpiperazin-2-one], 500 to 1000 nM.
Regarding `COCCN(CCOC)c1nc(N2CCCC(OC)C2)c2nc(N(CCOC)CCOC)nc(N3CCC(OC)CC3)c2n1` (stereo not shown) [Compound 96, N2,N2,N6,N6-tetrakis(2-methoxyethyl)-4-(3-methoxypiperidin-1-yl)-8-(4-methoxypiperidin-1-yl)pyrimido[5,4-d]pyrimidine-2,6-diamine], the IC50 was in the range of 100 to 500 nM.
On to `COCCN(CCOC)c1nc(N2CCc3c(ncn3C)C2)c2nc(N(CCOC)CCOC)nc(N3CCN(C)C(=O)C3)c2n1` [Compound 253, 4-(2,6-bis(bis(2-methoxyethyl)amino)-8-(1-methyl-1,4,6,7-tetrahydro-5H-imidazo[4,5-c]pyridin-5-yl)pyrimido[5,4-d]pyrimidin-4-yl)-1-methylpiperazin-2-one], for which the IC50 was in the range of 100 to 500 nM.
`CCCN(C)c1nc(N(CCOC)CCOC)nc2c(N3CCS(=O)(=O)CC3)nc(N(CCOC)CCOC)nc12` [Compound 8, 4-(2,6-bis(bis(2-methoxyethyl)amino)-8-(methyl(propyl)amino)pyrimido[5,4-d]pyrimidin-4-yl)thiomorpholine 1,1-dioxide] returned an IC50 of less than 100 nM.
The value for `COCCN(CCOC)c1nc(N2CC[C@H](OC)C2)c2nc(N(CCOC)CCOC)nc(N3CCC(OC)CC3)c2n1` [Compound 106, (S)-N2,N2,N6,N6-tetrakis(2-methoxyethyl)-4-(4-methoxypiperidin-1-yl)-8-(3-methoxypyrrolidin-1-yl)pyrimido[5,4-d]pyrimidine-2,6-diamine] was 100 to 500 nM; that for `CCCCNc1nc(N(CCOC)CCOC)nc2c(N3CCC(OC)CC3)nc(N(CCOC)CCOC)nc12` [Compound 54, N4-butyl-N2,N2,N6,N6-tetrakis(2-methoxyethyl)-8-(4-methoxypiperidin-1-yl)pyrimido[5,4-d]pyrimidine-2,4,6-triamine] was less than 100 nM; that for `COCCN(CCOC)c1nc(N2CCC(OC)CC2)c2nc(N(CCOC)CCOC)nc(N3CCOCC3)c2n1` [Compound 69, N2,N2,N6,N6-tetrakis(2-methoxyethyl)-4-(4-methoxypiperidin-1-yl)-8-morpholinopyrimido[5,4-d]pyrimidine-2,6-diamine] was 500 to 1000 nM.
In turn, `COCCN(CCOC)c1nc(N2CCC(OC)CC2)c2nc(N(CCOC)CCOC)nc(N(C)CC(C)C)c2n1` [Compound 168, N4-isobutyl-N2,N2,N6,N6-tetrakis(2-methoxyethyl)-8-(4-methoxypiperidin-1-yl)-N4-methylpyrimido[5,4-d]pyrimidine-2,4,6-triamine] gave a concentration for half-maximal inhibition (IC50) of less than 100 nM.
In turn, `COCCN(CCOC)c1nc(N2CCc3nocc3C2)c2nc(N(CCOC)CCOC)nc(N3CCN(C)C(=O)C3)c2n1` [Compound 254, 4-(2,6-bis(bis(2-methoxyethyl)amino)-8-(6,7-dihydroisoxazolo[4,3-c]pyridin-5(4H)-yl)pyrimido[5,4-d]pyrimidin-4-yl)-1-methylpiperazin-2-one] returned an IC50 of less than 100 nM.
For `COCCN(CCOC)c1nc(N2CCN(c3ncn(C)n3)CC2)c2nc(N(CCOC)CCOC)nc(NCc3cccc(OC)c3)c2n1` [Compound 222, N4-(3-methoxybenzyl)-N2,N2,N6,N6-tetrakis(2-methoxyethyl)-8-(4-(1-methyl-1H-1,2,4-triazol-3-yl)piperazin-1-yl)pyrimido[5,4-d]pyrimidine-2,4,6-triamine] the value was less than 100 nM; for `COCCN(CCOC)c1nc(N2CCC(OC)CC2)c2nc(N(CCO)CCO)nc(N3CC(=O)N(C)C(=O)C3)c2n1` [Compound 307, 4-(2-(bis(2-hydroxyethyl)amino)-6-(bis(2-methoxyethyl)amino)-8-(4-methoxypiperidin-1-yl)pyrimido[5,4-d]pyrimidin-4-yl)-1-methylpiperazine-2,6-dione], less than 100 nM.
Regarding `COC1CCN(c2nc(N(CCOC(C)=O)CCOC(C)=O)nc3c(N4CCC(OC)CC4)nc(N(CCOC(C)=O)CCOC(C)=O)nc23)CC1` [Compound 15, ((4,8-bis(4-methoxypiperidin-1-yl)pyrimido[5,4-d]pyrimidine-2,6-diyl)bis(azanetriyl))tetrakis(ethane-2,1-diyl)tetraacetate], the IC50 is less than 100 nM.
`COCCN(CCOC)c1nc(N2CCC(OC)CC2)c2nc(N(CCOC)CCOC)nc(NCCCc3ccccn3)c2n1` [Compound 177, N2,N2,N6,N6-tetrakis(2-methoxyethyl)-8-(4-methoxypiperidin-1-yl)-N4-(3-(pyridin-2-yl)propyl)pyrimido[5,4-d]pyrimidine-2,4,6-triamine]: the IC50 fell in the range of 500 to 1000 nM.
In turn, `COCCN(CCOC)c1nc(N2CCC(OC)CC2)c2nc(N(CCOC)CCOC)nc(NCc3ccc(F)c(F)c3)c2n1` [Compound 139, N4-(3,4-difluorobenzyl)-N2,N2,N6,N6-tetrakis(2-methoxyethyl)-8-(4-methoxypiperidin-1-yl)pyrimido[5,4-d]pyrimidine-2,4,6-triamine] displayed an IC50 of less than 100 nM.
Take `COCCN(CCOC)c1nc(N2CCN(C)C(=O)C2)c2nc(N(CCOC)CCOC)nc(NCc3ccccc3)c2n1` [Compound 190, 4-(8-(benzylamino)-2,6-bis(bis(2-methoxyethyl)amino)pyrimido[5,4-d]pyrimidin-4-yl)-1-methylpiperazin-2-one]: the IC50 is less than 100 nM.

For the origin of these results see US20230146675A1, “PYRIMIDO[5,4-d]PYRIMIDINE DERIVATIVES AS ENT INHIBITORS FOR THE TREATMENT OF CANCERS, AND COMBINATION THEREOF WITH ADENOSINE RECEPTOR ANTAGONISTS” (ITEOS BELGIUM SA, priority 2020, published 2023).
